Experimental data taken from patent publication US8207108B2, “Stabilizing composition” (DSM IP Assets B.V., priority 2005, dated 2012).
Each block holds one compound with its values, some of them ahead of it.

Key:
Assay type in all cases: physicochemical
[1] = Solubility of stabilizer in water/ethanol mixture as found in perfumes (appearance); conditions: 0.1 wt. % stabilizer in water/ethanol (96%) 53.9/46 wt. %
Text: An often occurring problem in the stabilization of colorants, dyes, fragrances and active ingredients is the solubility respectively the crystallization of the stabilizer/stabilizing composition in the final product form.

[2] = Color stabilization in blue liquid soap, irradiated with 100 MED, visual PANTONE color; conditions: irradiated 100 MED
Experimental: (§1) Basic formulation of the liquid soap:
(§2) The liquid soaps containing different colorants were irradiated with 100 MED and the color was determined visually according to Tints; PANTONE Color Tint Selector, The PANTONE Library of Color.
Blue liquid soap colored with FD&C Blue 1 W 092 (CI 42090)

[3] = Color stabilization in violet liquid soap, irradiated with 100 MED, visual PANTONE color; conditions: irradiated 100 MED
Experimental: as §1, §2

[4] = Color stabilization in green liquid soap, irradiated with 100 MED, visual PANTONE color; conditions: irradiated 100 MED
Experimental: as §1, §2
Green liquid soap colored with 0.9 ppm Green vent W 7003 (CI 61570)

[5] = 0.1 wt. % stabilizer, blank non irradiated 70% Tint

Appearance [1]: Turbid
SMILES: COc1ccc(C(=O)c2ccccc2)c(O)c1 [Benzophenon-3]

Appearance [1]: Precipitate
SMILES: O=C(c1ccc(O)cc1O)c1ccc(O)cc1O [Benzophenon-2]

Index (PANTONE tint) ([2]; 0.1 wt. % stabilizer, blank non irradiated 50% Tint): 50% Tint
Color (PANTONE) ([2]; FD&C Blue 1 W 092, 0.1 wt. % stabilizer, blank non irradiated Pantone 3125C): Pantone 3125C
Index (PANTONE tint) [3, 5]: 30% Tint
Color (PANTONE) ([3]; 3.1 ppm Vert Turquise W 7003 and 0.5 ppm FD&C Red 40WO93, 0.1 wt. % stabilizer, blank non irradiated Pantone 494C): Pantone 495C
SMILES: O=C(c1ccccc1)c1ccc(O)cc1O [Benzophenone-1, benzophenone-1]

Index (PANTONE tint) [4, 5]: 70% Tint
Color (PANTONE) ([4]; 0.9 ppm Green vent W 7003, 0.1 wt. % stabilizer, blank non irradiated Pantone 367C): Pantone 367C
SMILES: COc1cc(O)c(C(=O)c2ccccc2)cc1S(=O)(=O)O [Benzophenone-4, benzophenone-4]
